The subject of data set [1] is 4T1. Briefly: Antitumor activity against mouse 4T1 cells transplanted in BALB/c mouse assessed as tumor growth inhibition rate at 10 mg/kg, ip administered for 14 days relative to control. The data set is classed as functional. Details: scale not given: the % may be the effect or the level left. The conditions noted are these: time 14 day.
Data set [2] relates to MCF7. Briefly: Antiproliferative activity against human MCF7 cells assessed as inhibition of cell growth incubated for 48 hrs by MTT assay. The data set is classed as functional, cell-based. The conditions noted are these: MCF7, 48 h. In general terms: Tetrazolium dyes change colour on reduction, which living cells bring about.
In data set [3] the test system is MDA-MB-231. Briefly: Antiproliferative activity against human MDA-MB-231 cells assessed as inhibition of cell growth incubated for 48 hrs by MTT assay. In kind it is functional, cell-based. The conditions noted are these: MDA-MB-231, 48 h.
Data set [4] deals with HepG2. The data set can be described thus: Antiproliferative activity against human HepG2 cells assessed as inhibition of cell growth incubated for 48 hrs by MTT assay. In kind it is functional, cell-based. Conditions: HepG2, 48 h.
The test system of data set [5] is HT-29. The data set can be described thus: Antiproliferative activity against human HT-29 cells assessed as inhibition of cell growth incubated for 48 hrs by MTT assay. In kind it is functional, cell-based. The conditions noted are these: HT-29, 48 h.
Data set [6] concerns A549. The data set can be described thus: Antiproliferative activity against human A549 cells assessed as inhibition of cell growth incubated for 48 hrs by MTT assay. The data set is classed as functional, cell-based. Conditions: A549, 48 h.
In data set [7] the test system is PC-3. Briefly: Antiproliferative activity against human PC-3 cells assessed as inhibition of cell growth incubated for 48 hrs by MTT assay. The data set is classed as functional, cell-based. The conditions noted are these: PC-3, 48 h.
A short description of data set [8]: Cytotoxicity against human L02 cells assessed as inhibition of cell growth incubated for 48 hrs by MTT assay. The data set is classed as toxicity, cell-based.
Data set [9] has as its system MCF7. The data set can be described thus: Induction of DNA double-strand breaks in human MCF7 cells assessed as increase in gamma-H2AX at 10 uM incubated for 48 hrs by DAPI staining based confocal laser scanning microscopy. The data set is classed as functional, cell-based.
Data set [10] deals with MCF7. The data set can be described thus: Induction of DNA damage in human MCF7 cells at 10 uM incubated for 24 hrs by Comet assay. In kind it is functional, cell-based.
In data set [11] the test system is MCF7. The data set can be described thus: Induction of apoptosis in human MCF7 cells assessed as viable cells at 25 uM incubated for 24 hrs by Annexin V-FITC/Propidium Iodide staining based flow cytometry analysis (reference value: 91.8 %). The data set is classed as functional. The conditions noted are these: read-out: Activity. A general note: Flow cytometry measures light scatter and fluorescence of single cells or particles in a stream.

Data set [12] concerns MCF7. Briefly: Induction of apoptosis in human MCF7 cells assessed as early apoptotic cells at 25 uM incubated for 24 hrs by Annexin V-FITC/Propidium Iodide staining based flow cytometry analysis (reference value: 2.54 %). The data set is classed as functional.
The subject of data set [13] is MCF7. The data set can be described thus: Induction of apoptosis in human MCF7 cells assessed as late apoptotic cells at 25 uM incubated for 24 hrs by Annexin V-FITC/Propidium Iodide staining based flow cytometry analysis (reference value: 5.58 %). The data set is classed as functional.
Data set [14] deals with MCF7. Briefly: Induction of apoptosis in human MCF7 cells assessed as necrotic cells at 25 uM incubated for 24 hrs by Annexin V-FITC/Propidium Iodide staining based flow cytometry analysis (reference value: 0.082 %). In kind it is functional.

Activity calls are given as the source filed them. The rule behind the calls is not given here.

Drawing on ChEMBL document CHEMBL5518180, “Design, synthesis, and biological evaluation of harmine derivatives as topoisomerase I inhibitors for cancer treatment” (Eur J Med Chem, 2024), this text covers Activity, IC50 and viability for 5 molecules.

The term IC50 denotes the concentration needed to halve the response being measured.

Consider `CCc1c2c(nc3ccc(OC(=O)N4CCC(N5CCCCC5)CC4)cc13)-c1cc3c(c(=O)n1C2)COC(=O)[C@]3(O)CC` [IRINOTECAN], for which the Activity in [1] is 41.27%.
On to `CC[C@@]1(O)C(=O)OCc2c1cc1n(c2=O)Cc2cc3ccccc3nc2-1` [CAMPTOTHECIN], for which the IC50 in data set [2] was determined as 6.85 µM; in data set [3] it was 0.62 µM; in data set [4] it was 1.8 µM; in [5], 1.87 µM; in data set [6] it was 7.8 µM; in data set [7], 6.6 µM. The half-inhibitory concentration (IC50) at 48 h in [8] stood at 0.59 µM. Besides, the outcome in data set [9] and in [10] was Active.
Regarding `COc1ccc2c(c1)[nH]c1c(C)nccc12` [HARMINE], the IC50 in data set [2] is 13.4 µM; in data set [3] it was 13.2 µM; in data set [4], 19.2 µM; in data set [5], 12.2 µM; in data set [7] it was 15.6 µM. In [8], the half-maximal inhibitory concentration (IC50) at 48 h was found to be 9.49 µM. Besides, the viability at 25 µM in data set [11] is 82.7%. Further, the values for the Activity in data set [12], in [13] and in [14] were 9.74%, 7.48% and 0.055%, respectively.
Consider `COc1ccc2[nH]c3c(C(=O)/C=C/c4cc(F)c(F)c(F)c4)nccc3c2c1`, for which the IC50 was 4.23 µM in data set [2]; 6.52 µM in data set [3]; 15.9 µM in data set [4]; 2.72 µM in data set [5]; more than 20 µM in data set [6]; more than 10 µM in data set [7]. The IC50 at 48 h in data set [8] was more than 20 µM.
On to `COc1cc(Br)c(/C=C/C(=O)c2nccc3c2[nH]c2ccccc23)cc1OC`, for which the IC50 in [2] is 2.21 µM; in [3] it was 7.03 µM; in data set [4] it was 9.65 µM; in data set [5], 3.75 µM; in data set [6], 9.83 µM; in data set [7] it was more than 10 µM. The IC50 at 48 h in data set [8] is more than 20 µM.
